For two molecules, mutagenic call results are on record in PubChem BioAssay AID1259407 (Chemical Carcinogenesis Research Information System (CCRIS), 2018).

Structures are written as SMILES. Active and inactive are the calls of the source. The rule behind the calls is not given here.

This data set concerns CCRIS mutagenicity, Ames/micronucleus/aberration tests. Kind of data set: CCRIS mutagenicity studies.

With `C[Si]1(C)O[Si](C)(C)O[Si](C)(C)O[Si](C)(C)O1`, the mutagenic call was “inactive; negative” (Test System: AMES SALMONELLA TYPHIMURIUM, Strain/Indicator: TA98, Metabolic Activation: NONE, Method: PREINCUBATION); “inactive; negative” (Test System: AMES SALMONELLA TYPHIMURIUM, Strain/Indicator: TA98, Metabolic Activation: NONE, Method: STANDARD PLATE); “inactive; negative” (Test System: AMES SALMONELLA TYPHIMURIUM, Strain/Indicator: TA98, Metabolic Activation: RAT LIVER S-9, AROCLOR 1254, Method: PREINCUBATION); “inactive; negative” (Test System: AMES SALMONELLA TYPHIMURIUM, Strain/Indicator: TA98, Metabolic Activation: RAT LIVER S-9, AROCLOR 1254, Method: STANDARD PLATE); “inactive; negative” (Test System: AMES SALMONELLA TYPHIMURIUM, Strain/Indicator: TA100, Metabolic Activation: NONE, Method: PREINCUBATION); “inactive; negative” (Test System: AMES SALMONELLA TYPHIMURIUM, Strain/Indicator: TA100, Metabolic Activation: NONE, Method: STANDARD PLATE). The mutagenic call was “inactive; negative” (Test System: AMES SALMONELLA TYPHIMURIUM, Strain/Indicator: TA100, Metabolic Activation: RAT LIVER S-9, AROCLOR 1254, Method: PREINCUBATION); “inactive; negative” (Test System: AMES SALMONELLA TYPHIMURIUM, Strain/Indicator: TA100, Metabolic Activation: RAT LIVER S-9, AROCLOR 1254, Method: STANDARD PLATE); “inactive; negative” (Test System: AMES SALMONELLA TYPHIMURIUM, Strain/Indicator: TA1535, Metabolic Activation: NONE, Method: PREINCUBATION); “inactive; negative” (Test System: AMES SALMONELLA TYPHIMURIUM, Strain/Indicator: TA1535, Metabolic Activation: NONE, Method: STANDARD PLATE); “inactive; negative” (Test System: AMES SALMONELLA TYPHIMURIUM, Strain/Indicator: TA1535, Metabolic Activation: RAT LIVER S-9, AROCLOR 1254, Method: PREINCUBATION); “inactive; negative” (Test System: AMES SALMONELLA TYPHIMURIUM, Strain/Indicator: TA1535, Metabolic Activation: RAT LIVER S-9, AROCLOR 1254, Method: STANDARD PLATE). In addition, the mutagenic call (Test System: AMES SALMONELLA TYPHIMURIUM, Strain/Indicator: TA1537, Metabolic Activation: NONE, Method: PREINCUBATION) is “inactive; negative”; the mutagenic call (Test System: AMES SALMONELLA TYPHIMURIUM, Strain/Indicator: TA1537, Metabolic Activation: NONE, Method: STANDARD PLATE) was “inactive; negative”; the mutagenic call (Test System: AMES SALMONELLA TYPHIMURIUM, Strain/Indicator: TA1537, Metabolic Activation: RAT LIVER S-9, AROCLOR 1254, Method: PREINCUBATION) was “inactive; negative”; the mutagenic call (Test System: AMES SALMONELLA TYPHIMURIUM, Strain/Indicator: TA1537, Metabolic Activation: RAT LIVER S-9, AROCLOR 1254, Method: STANDARD PLATE) is “inactive; negative”; the mutagenic call (Test System: AMES SALMONELLA TYPHIMURIUM, Strain/Indicator: TA1538, Metabolic Activation: NONE, Method: PREINCUBATION) is “inactive; negative”; the mutagenic call (Test System: AMES SALMONELLA TYPHIMURIUM, Strain/Indicator: TA1538, Metabolic Activation: NONE, Method: STANDARD PLATE) is “inactive; negative”. The mutagenic call is, setting by setting: (Test System: AMES SALMONELLA TYPHIMURIUM, Strain/Indicator: TA1538, Metabolic Activation: RAT LIVER S-9, AROCLOR 1254, Method: PREINCUBATION) “inactive; negative”; (Test System: AMES SALMONELLA TYPHIMURIUM, Strain/Indicator: TA1538, Metabolic Activation: RAT LIVER S-9, AROCLOR 1254, Method: STANDARD PLATE) “inactive; negative”; (Test System: E. COLI, Strain/Indicator: P3078 POLA, Metabolic Activation: NONE, Method: SPOT TEST) “inactive; negative”; (Test System: E. COLI, Strain/Indicator: P3078 POLA, Metabolic Activation: RAT LIVER S-9, AROCLOR 1254, Method: SPOT TEST) “inactive; negative”; (Test System: E. COLI, Strain/Indicator: W3110, Metabolic Activation: NONE, Method: SPOT TEST) “inactive; negative”; (Test System: E. COLI, Strain/Indicator: W3110, Metabolic Activation: RAT LIVER S-9, AROCLOR 1254, Method: SPOT TEST) “inactive; negative”. Further, the mutagenic call by setting is: (Test System: MOUSE LYMPHOMA, Strain/Indicator: L5178Y (TK+/TK-), Metabolic Activation: NONE, Method: SUSPENSION/PLATE) “inactive; negative”; (Test System: MOUSE LYMPHOMA, Strain/Indicator: L5178Y (TK+/TK-), Metabolic Activation: RAT, LIVER, S-9, Method: SUSPENSION/PLATE) “inactive; negative”; (Test System: Mouse lymphoma, Strain/Indicator: L5178Y (tk+/tk-), Metabolic Activation: None, Method: Suspension/plate) “inactive; inconclusive (previous evaluation negative)”; (Test System: Mouse lymphoma, Strain/Indicator: L5178Y (tk+/tk-), Metabolic Activation: Rat, Liver, S-9, Aroclor 1254, Method: Suspension/plate) “inactive; negative”.

As for `O=C1CCCc2cc3c(cc21)c([N+](=O)[O-])cc1ccccc13`, the mutagenic call by setting is: (Test System: AMES SALMONELLA TYPHIMURIUM, Strain/Indicator: TA98-1,8-DNP6, Metabolic Activation: NONE) “inactive; negative”; (Test System: AMES SALMONELLA TYPHIMURIUM, Strain/Indicator: TA98-1,8-DNP6, Metabolic Activation: S-9) “inactive; negative”; (Test System: AMES SALMONELLA TYPHIMURIUM, Strain/Indicator: TA98, Metabolic Activation: NONE) “active; positive”; (Test System: AMES SALMONELLA TYPHIMURIUM, Strain/Indicator: TA98, Metabolic Activation: S-9) “active; positive”; (Test System: AMES SALMONELLA TYPHIMURIUM, Strain/Indicator: TA98NR, Metabolic Activation: NONE) “inactive; negative”; (Test System: AMES SALMONELLA TYPHIMURIUM, Strain/Indicator: TA98NR, Metabolic Activation: S-9) “inactive; negative”. Further, the mutagenic call was “active; positive” (Test System: AMES SALMONELLA TYPHIMURIUM, Strain/Indicator: TA100, Metabolic Activation: NONE); “active; positive” (Test System: AMES SALMONELLA TYPHIMURIUM, Strain/Indicator: TA100, Metabolic Activation: S-9); “active; positive” (Test System: AMES SALMONELLA TYPHIMURIUM, Strain/Indicator: TA100NR, Metabolic Activation: NONE); “active; positive” (Test System: AMES SALMONELLA TYPHIMURIUM, Strain/Indicator: TA100NR, Metabolic Activation: S-9).
